Results: the SangsterLogP compilation

Experiment: method code SF, from DOI: 10.1016/0045-6535(88)90210-x

SMILES | logP
Cc1ccc(O)c(N)c1 | 1.11
Oc1c(I)cc(I)cc1I | 4.5
CCc1ccccc1N | 2.04
Oc1cc(Cl)c(Cl)c(Cl)c1Cl | 4.37
CC(C)(C)c1cc(O)cc(C(C)(C)C)c1 | 4.64
CC(O)CO (stereo not drawn) | -0.99
NC(=O)Nc1cccc(O)c1 | 0.36
COc1cc(OC)c(Cl)cc1N | 1.45
OCC(Br)CBr (stereo not drawn) | 0.9
OCCCl | 0.03
Cc1ccc(N)c(C)c1 | 2.13
Nc1ccc([N+](=O)[O-])cc1[N+](=O)[O-] | 1.9
Cc1ccc(N)cc1Cl | 2.4
